Earlier results, collected in patent US20230080958A1, “METHODS OF TREATING PSEUDOBULBAR AFFECT AND OTHER EMOTIONAL DISTURBANCES” (Woolsey Pharmaceuticals, Inc., priority 2020, published 2023).

Experiments:
[1] = 1-hydroxy (M3) metabolite, in vivo (Shibuya 2001)
[2] = system: patients with sub-cortical vascular dementia

Row | half-life [1] | SMILES | emotional incontinence (compulsive laughing and/or crying) ([2]; Kamei publication and Japanese patent application 6-293643, three patients, no assessment or diagnosis of PBA) | wandering (primary outcome) ([2]; two patients with sub-cortical vascular dementia, open-label, no control group, concomitant medications (Kamei 1996))
1 | about 8 hours | O=S(=O)(c1cccc2c(O)nccc12)N1CCCNCC1 [M3] |  | 
2 |  | O=S(=O)(c1cccc2cnccc12)N1CCCNCC1 [fasudil, hexahydro-1-(5-isoquinolinesulfonyl)-1H-1,4-diazepine] | improvements | mitigated wandering
